One block for each molecule: values may come before it. Calls of active or inactive are those of the source.
Key:
[1] = molecular target: T1, Nucleotide-binding oligomerization domain-containing protein 1 (Homo sapiens, UniProt Q9Y239); test: NOD1 signaling inhibitors, SAR follow-up, revised (AID 2333); type: functional
T1 sequence (Q9Y239 whole entry): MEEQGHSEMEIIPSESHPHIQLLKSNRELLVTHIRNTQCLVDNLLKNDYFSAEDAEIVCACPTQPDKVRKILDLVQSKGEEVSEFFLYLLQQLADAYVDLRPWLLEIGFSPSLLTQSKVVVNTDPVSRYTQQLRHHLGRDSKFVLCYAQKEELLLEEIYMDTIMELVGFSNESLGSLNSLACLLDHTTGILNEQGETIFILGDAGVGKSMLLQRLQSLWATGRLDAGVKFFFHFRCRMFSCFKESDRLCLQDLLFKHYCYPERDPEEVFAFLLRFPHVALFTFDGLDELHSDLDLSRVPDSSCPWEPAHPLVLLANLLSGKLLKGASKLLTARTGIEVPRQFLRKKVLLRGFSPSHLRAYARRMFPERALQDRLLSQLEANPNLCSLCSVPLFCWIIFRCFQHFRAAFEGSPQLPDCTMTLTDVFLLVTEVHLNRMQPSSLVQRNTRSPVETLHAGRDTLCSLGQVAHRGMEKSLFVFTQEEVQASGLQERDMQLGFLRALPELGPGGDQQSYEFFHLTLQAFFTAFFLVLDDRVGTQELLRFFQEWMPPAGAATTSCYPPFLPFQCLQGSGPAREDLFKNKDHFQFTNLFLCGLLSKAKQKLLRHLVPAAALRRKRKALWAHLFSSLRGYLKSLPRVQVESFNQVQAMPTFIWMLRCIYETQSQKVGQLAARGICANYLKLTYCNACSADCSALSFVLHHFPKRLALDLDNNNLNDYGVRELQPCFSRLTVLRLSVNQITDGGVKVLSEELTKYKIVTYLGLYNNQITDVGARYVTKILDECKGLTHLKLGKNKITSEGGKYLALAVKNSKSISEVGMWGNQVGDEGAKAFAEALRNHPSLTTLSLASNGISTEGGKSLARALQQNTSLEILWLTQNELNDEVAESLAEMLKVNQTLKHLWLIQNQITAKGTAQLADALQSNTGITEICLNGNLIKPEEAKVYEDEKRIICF

HEK293 = test: cells; settings: Homo sapiens;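 also: cells exposed to compound for 14 hours overnight before viability readout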
Tumor necrosis factor = Tumor necrosis factor (Homo sapiens, UniProt P01375); test: TNFa-triggered NF-kB activation inhibitors, SAR follow-up, cell-based, revised (AID 2337); type: functional
Tumor necrosis factor, sequence (P01375 whole entry): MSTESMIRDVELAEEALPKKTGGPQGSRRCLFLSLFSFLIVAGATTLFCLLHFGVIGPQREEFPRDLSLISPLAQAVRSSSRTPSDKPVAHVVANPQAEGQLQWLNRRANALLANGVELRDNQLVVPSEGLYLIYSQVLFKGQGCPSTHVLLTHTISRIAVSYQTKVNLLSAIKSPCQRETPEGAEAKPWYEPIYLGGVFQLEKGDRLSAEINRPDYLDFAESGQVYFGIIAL

[2] = molecular target: T2, Mannose-6-phosphate isomerase (Homo sapiens, UniProt P34949); test: inhibitors of human PMI, primary screen, biochemical, fluorescence intensity, coupled assay (AID 1209)
T2 sequence (P34949 whole entry): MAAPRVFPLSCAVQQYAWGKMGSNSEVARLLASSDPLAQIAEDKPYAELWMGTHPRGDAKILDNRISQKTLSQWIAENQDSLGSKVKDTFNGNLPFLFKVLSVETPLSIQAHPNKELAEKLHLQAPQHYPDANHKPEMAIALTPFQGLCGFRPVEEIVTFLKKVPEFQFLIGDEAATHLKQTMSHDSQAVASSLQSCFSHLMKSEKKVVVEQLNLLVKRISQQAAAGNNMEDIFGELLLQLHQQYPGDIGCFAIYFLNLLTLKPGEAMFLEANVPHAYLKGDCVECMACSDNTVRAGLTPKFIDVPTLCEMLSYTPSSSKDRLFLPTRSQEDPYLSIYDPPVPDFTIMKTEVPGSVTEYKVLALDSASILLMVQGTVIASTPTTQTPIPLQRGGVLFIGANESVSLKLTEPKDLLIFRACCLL

[3] = molecular target: T2, Mannose-6-phosphate isomerase; test: PMI enzyme inhibitors, confirmation, biochemical, fluorescence intensity (AID 1535)
Phosphomannomutase 2 = Phosphomannomutase 2 (Homo sapiens, UniProt O15305); test: Counter screen SAR assay for PMM2 inhibitors via a fluorescence intensity assay. [Related pubchem assays (depositor defined):AID1545, AID1574]
Phosphomannomutase 2, sequence (O15305 whole entry): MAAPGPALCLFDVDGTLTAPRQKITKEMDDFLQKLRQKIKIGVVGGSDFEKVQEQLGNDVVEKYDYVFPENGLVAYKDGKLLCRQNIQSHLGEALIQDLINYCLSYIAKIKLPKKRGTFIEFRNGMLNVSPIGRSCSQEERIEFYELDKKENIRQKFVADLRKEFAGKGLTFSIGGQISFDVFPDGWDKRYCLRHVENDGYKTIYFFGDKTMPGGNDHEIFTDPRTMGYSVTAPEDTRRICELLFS

[4] = molecular target: Sphingosine 1-phosphate receptor 2 (Homo sapiens, UniProt O95136); test: Dose Response Cell Based Assay for Antagonists of the S1P2 Receptor. [Related pubchem assays: 856, 736 ]; type: functional
Sphingosine 1-phosphate receptor 2, sequence (O95136 whole entry): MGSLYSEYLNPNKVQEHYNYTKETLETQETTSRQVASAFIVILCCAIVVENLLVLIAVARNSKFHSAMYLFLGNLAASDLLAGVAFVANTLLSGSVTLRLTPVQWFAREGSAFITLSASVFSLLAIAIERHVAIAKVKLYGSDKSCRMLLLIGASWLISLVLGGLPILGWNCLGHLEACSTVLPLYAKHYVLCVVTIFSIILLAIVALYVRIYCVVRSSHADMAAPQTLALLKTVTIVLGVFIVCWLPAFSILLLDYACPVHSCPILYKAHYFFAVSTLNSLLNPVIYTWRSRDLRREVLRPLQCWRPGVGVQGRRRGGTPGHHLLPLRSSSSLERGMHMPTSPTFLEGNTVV

CHO-K1 = test: (§1) Counterscreen for antagonists of the orexin 1 receptor (OX1R; HCRTR1): Homogeneous time resolved fluorescence (HTRF)-based cell-based dose response assay to identify antagonists of the parental CHO-K1 cell line. [Related pubchem assays (depositor defined):AID434989, AID435008, AID463079, AID485270, AID492963, AID492964, AID492965, AID493232, AID504699, AID504701]; type: functional; settings: Cricetulus griseus
Fatty acid synthase = Fatty acid synthase (Homo sapiens, UniProt P49327); test: FAS thioesterase domain inhibitors, dose response, biochemical, kinetic fluorescence intensity (AID 624326); type: functional;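 also: rate of fluorescence rise from hydrolysis of a fluorogenic O-methyl fluorescein ester substrate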
Fatty acid synthase, sequence (P49327 whole entry, the tested form may be a part): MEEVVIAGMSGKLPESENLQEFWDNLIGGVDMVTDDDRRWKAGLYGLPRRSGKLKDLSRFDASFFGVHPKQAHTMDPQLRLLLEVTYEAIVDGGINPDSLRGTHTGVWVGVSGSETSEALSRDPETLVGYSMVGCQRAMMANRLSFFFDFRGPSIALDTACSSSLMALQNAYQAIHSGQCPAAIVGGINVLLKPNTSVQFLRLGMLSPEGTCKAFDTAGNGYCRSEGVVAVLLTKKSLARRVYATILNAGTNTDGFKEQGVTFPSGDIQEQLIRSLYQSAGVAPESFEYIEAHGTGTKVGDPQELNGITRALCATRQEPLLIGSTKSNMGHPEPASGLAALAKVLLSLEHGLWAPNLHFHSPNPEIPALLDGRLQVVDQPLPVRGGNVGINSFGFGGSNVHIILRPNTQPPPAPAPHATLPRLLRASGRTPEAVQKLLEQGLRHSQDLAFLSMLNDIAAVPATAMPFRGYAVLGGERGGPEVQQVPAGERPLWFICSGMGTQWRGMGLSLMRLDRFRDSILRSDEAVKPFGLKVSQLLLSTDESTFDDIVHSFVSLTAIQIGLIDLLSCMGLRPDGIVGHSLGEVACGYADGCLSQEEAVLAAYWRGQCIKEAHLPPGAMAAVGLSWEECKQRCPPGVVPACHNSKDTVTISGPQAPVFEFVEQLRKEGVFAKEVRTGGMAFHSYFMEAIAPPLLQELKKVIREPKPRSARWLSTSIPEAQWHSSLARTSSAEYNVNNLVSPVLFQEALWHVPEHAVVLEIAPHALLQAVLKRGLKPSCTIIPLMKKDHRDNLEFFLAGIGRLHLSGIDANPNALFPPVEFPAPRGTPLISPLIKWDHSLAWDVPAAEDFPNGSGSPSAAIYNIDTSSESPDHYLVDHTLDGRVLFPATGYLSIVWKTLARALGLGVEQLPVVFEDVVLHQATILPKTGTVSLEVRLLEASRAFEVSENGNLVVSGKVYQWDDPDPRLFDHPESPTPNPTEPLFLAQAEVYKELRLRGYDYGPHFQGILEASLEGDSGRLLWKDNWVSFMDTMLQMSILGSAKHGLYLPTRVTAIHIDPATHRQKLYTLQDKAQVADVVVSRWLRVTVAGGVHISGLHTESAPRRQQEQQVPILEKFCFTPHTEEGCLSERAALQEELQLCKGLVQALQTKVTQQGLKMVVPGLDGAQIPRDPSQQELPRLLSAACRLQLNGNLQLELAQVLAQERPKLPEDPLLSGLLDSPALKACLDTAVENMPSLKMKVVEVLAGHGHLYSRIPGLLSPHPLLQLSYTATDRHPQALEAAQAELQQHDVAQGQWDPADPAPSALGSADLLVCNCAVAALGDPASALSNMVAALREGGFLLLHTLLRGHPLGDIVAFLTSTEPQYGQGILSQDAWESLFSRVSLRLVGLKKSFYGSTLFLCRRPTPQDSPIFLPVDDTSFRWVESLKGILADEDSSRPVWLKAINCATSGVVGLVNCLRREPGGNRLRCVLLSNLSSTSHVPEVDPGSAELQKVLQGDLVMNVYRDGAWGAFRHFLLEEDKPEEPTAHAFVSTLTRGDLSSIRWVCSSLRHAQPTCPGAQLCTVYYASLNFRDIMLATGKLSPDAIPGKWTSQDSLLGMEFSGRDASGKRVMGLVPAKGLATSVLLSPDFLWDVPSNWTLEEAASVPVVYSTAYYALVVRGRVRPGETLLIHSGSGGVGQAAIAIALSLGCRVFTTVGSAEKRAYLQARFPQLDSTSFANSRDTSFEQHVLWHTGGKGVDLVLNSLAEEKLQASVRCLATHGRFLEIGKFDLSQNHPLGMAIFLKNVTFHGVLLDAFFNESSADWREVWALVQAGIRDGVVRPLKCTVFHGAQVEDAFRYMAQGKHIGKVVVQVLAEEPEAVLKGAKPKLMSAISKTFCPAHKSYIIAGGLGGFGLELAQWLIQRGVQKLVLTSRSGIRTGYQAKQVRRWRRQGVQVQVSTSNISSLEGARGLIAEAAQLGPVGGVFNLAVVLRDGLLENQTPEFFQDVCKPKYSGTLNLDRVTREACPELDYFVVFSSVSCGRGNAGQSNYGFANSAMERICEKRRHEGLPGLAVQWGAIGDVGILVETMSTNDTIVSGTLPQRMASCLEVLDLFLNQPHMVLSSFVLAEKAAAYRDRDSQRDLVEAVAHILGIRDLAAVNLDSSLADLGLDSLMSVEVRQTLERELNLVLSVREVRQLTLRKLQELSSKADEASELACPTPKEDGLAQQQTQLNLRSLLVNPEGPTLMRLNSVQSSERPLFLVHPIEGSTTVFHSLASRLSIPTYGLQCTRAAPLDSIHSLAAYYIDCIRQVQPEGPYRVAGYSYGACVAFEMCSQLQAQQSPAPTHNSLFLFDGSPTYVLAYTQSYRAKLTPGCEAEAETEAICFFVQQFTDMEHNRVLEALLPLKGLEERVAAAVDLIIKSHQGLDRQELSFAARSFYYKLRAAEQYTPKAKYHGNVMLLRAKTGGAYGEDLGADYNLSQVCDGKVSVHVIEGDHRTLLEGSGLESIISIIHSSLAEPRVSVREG

[5] = control 3'UTR Renilla luciferase suppression, dose response, counter-screen for Shn3 inhibitor project, cell-based, Clone20-Shn3RL, cherry-picked (AID 624133); type: functional
[6] = molecular target: T3, Orexin/Hypocretin receptor type 1 (Homo sapiens, UniProt O43613); test: (§2) Fluorescence-based cell-based high throughput dose response assay for antagonists of the orexin 1 receptor (OX1R; HCRTR1). [Related pubchem assays (depositor defined):AID434989, AID435008, AID463079, AID485270, AID492963, AID492964, AID492965, AID493232, AID504717, AID504718]; type: functional
T3 sequence (O43613 whole entry): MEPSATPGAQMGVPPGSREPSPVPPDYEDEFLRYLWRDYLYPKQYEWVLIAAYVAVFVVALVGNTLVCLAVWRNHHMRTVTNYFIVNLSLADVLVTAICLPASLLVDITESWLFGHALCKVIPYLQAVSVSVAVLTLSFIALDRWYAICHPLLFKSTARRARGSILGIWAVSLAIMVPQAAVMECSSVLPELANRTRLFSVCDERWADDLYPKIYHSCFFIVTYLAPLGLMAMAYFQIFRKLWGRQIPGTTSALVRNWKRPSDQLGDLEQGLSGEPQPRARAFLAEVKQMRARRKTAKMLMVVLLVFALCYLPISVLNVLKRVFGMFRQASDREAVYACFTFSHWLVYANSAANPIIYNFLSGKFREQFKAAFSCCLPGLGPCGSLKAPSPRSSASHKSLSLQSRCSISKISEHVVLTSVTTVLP

[7] = as §1, with “Fluorescence-based” for “Homogeneous time resolved fluorescence (HTRF)-based”, “cell-based high throughput” for “cell-based”, “CHO” for “CHO-K1”; type: functional
[8] = Shn3 3'UTR reporter inhibitors, dose response, cell-based, Clone20 osteoblasts, firefly luciferase, cherry-picked (AID 624132); type: functional;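 also: firefly luciferase luminescence from reporter carrying the Shn3 3'UTR in osteoblasts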
[9] = molecular target: T4, Microphthalmia-associated transcription factor (Homo sapiens, UniProt O75030); test: TRPM1 promoter luciferase signal decrease, dose response, MITF inhibitor project, cell-based, SK-MEL-5, cherry-picked, set 3 (AID 493073); type: functional
T4 sequence (O75030 whole entry): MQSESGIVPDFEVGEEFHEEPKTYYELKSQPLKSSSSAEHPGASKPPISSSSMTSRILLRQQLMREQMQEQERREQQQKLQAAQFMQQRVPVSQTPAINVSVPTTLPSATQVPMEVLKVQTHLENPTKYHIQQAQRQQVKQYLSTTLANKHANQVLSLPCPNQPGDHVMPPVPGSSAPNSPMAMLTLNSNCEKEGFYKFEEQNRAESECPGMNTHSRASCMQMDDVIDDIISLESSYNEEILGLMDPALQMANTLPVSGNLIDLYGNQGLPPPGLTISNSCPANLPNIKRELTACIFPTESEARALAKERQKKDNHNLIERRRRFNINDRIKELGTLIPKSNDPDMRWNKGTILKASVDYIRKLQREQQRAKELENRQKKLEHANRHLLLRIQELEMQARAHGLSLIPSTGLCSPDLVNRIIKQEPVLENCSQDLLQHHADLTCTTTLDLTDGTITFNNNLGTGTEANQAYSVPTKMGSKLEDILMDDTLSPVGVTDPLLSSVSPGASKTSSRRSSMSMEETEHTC

INS1 = test: beta cell apoptosis inhibitors, cytokine rescue, dose response, luminescence, retest (AID 449756); type: functional, cell-based; settings: Rattus norvegicus;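 also: cell death triggered by IL-1 beta plus TNF-alpha plus IFN-gamma mixture; protective hits raise ATP signal compared with cytokine alone wells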
[10] = molecular target: T3, Orexin/Hypocretin receptor type 1; test: as §2, with “Homogeneous Time Resolved Fluorescence (HTRF)-based” for “Fluorescence-based”; type: functional
Orexin receptor type 2 [11] = molecular target: T5, Orexin receptor type 2 (Homo sapiens, UniProt O43614); test: Counterscreen assay for antagonists of the orexin 1 receptor (OX1R; HCRTR1): Homogeneous Time Resolved Fluorescence (HTRF)-based cell-based dose response assay for antagonists of the orexin 2 receptor (OX2R; HCRTR2), run by assay provider.; type: functional
T5 sequence (O43614 whole entry): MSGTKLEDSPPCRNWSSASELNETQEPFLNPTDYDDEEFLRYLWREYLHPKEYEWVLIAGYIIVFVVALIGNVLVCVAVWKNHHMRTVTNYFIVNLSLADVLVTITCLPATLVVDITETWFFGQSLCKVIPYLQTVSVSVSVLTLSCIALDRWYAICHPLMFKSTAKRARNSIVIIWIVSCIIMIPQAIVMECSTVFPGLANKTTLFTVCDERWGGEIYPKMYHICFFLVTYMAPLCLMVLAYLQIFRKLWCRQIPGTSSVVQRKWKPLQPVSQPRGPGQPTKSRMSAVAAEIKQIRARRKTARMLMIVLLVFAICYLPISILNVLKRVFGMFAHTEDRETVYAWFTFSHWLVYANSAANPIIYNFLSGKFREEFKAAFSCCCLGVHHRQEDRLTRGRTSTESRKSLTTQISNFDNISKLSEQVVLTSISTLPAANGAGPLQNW

Orexin receptor type 2 [12] = molecular target: T5, Orexin receptor type 2; test: Counterscreen assay for antagonists of the orexin 1 receptor (OX1R; HCRTR1): Fluorescence-based cell-based dose response assay for antagonists of the orexin 2 receptor (OX2R; HCRTR2), run by assay provider.; type: functional
[13] = HepG2 cell cytotoxicity, dose response, cytotoxicity control for Shn3 inhibitor project, CellTiter-Glo, cherry-picked (AID 624134); type: functional, cell-based
[14] = cytotoxicity in HEK-293T NF-kB-Luc cells, dose response, cytotoxicity control for B/T-cell NF-kB inhibitor project, cell-based, uHTS hits (AID 489019); type: functional;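 also: IC50 reflects cytotoxicity as loss of cell viability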
Jurkat = test: antigen receptor-induced NF-kB inhibitors, dose response, Jurkat, luciferase reporter, luminescence, B- and T-cell (AID 489004); type: functional, cell-based; settings: Homo sapiens;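 also: NF-kB luciferase reporter Jurkat cells stimulated with PMA plus ionomycin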

SMILES: COc1ccc(NC(=O)c2ccc(CN3CCc4ccccc4C3)cc2)cc1
IC50 [1]: 0.513 µM (active)
IC50 (HEK293): > 20 µM (inactive)
IC50 (Tumor necrosis factor): 0.65 µM (active)

IC50 [2]: 16 µM (active)
IC50 [3]: 36.9 µM (active)
IC50 (Phosphomannomutase 2): > 100 µM (inactive)
SMILES: N#CC1=C2SCN(Cc3ccccc3)CN2C(=O)CC1c1ccc2c(c1)OCO2 (stereo unspecified)

SMILES: COc1ccccc1C(=O)Nc1nc(-c2ccc(S(=O)(=O)N3CCOCC3)cc2)cs1
IC50 [4]: 3.81 µM (active)
IC50 (CHO-K1): > 66.2 µM (inactive)
IC50 (Fatty acid synthase): 10.9 µM (active)
AC50 [5]: 2.34 µM (active)
IC50 [6]: 17.5 µM (inactive)
IC50 [7]: > 16.6 µM (inactive)
AC50 [8]: 1.21 µM (active)
AC50 [9]: 4.34 µM (active)
AC50 (INS1): 3.17 µM (active)
IC50 [10]: 3.59 µM (active)
IC50 (Orexin receptor type 2 [11]): 5.93 µM (active)
IC50 (Orexin receptor type 2 [12]): 8.4 µM (active)
AC50 [13]: 51.8 µM (active)
IC50 [14]: > 80 µM (inactive)
IC50 (Jurkat): 7.79 µM (active)

— ChEMBL document CHEMBL1201862, “PubChem BioAssay data set” (2004)
